{"source": "patent EP4285905A1", "about": "“CABERGOLINE OR A PHARMACEUTICALLY ACCEPTABLE SALT OR SOLVATE THEREOF, FOR USE IN PREVENTION OR DELAY OF POST-PREGNANCY BREAST CANCER IN A FEMALE MAMMAL” (Consejo Superior de Investigaciones Cientificas, priority 2022, dated 2023)", "key": {"[1]": {"test_system": "recombinant (RFP+) cells", "test": "Flow cytometry of RFP+ recombinant mammary epithelial subpopulations", "format": "in vivo, mice", "details": "60 days after weaning", "description": "The mouse model used for the cytometry studies was obtained by crossing the conditional model K14Cre; Brca1^F/F; P53^F/F with a model that expresses red fluorescent protein (RFP) under the promoter of the ROSA26 locus. This promoter has a stop codon flanked by LoxP sites that recognize Cre-recombinase. In this way, cells that lose Brca1 (gene) and P53 (gene) due to the action of Cre-recombinase also express RFP and emit fluorescence. The mouse was obtained from the European repository (European mutant mouse archive - EMMA) and was generated by the group of Hans Jörg Fehling from the Institute of Immunology of the Clinical University of Ulm, Germany. For these studies, between 6 and 11 mice from the different study groups were used.\nOnce the mouse mammary glands were removed, they were incubated in a 50 mL tube containing 9 mL of medium (Gibco DMEM/F-12, #11554546, Fisher Scientific), 500 µL of collagenase and 500 µL of hyaluronidase, at a temperature of 37 °C for 16 hours. After incubation, the aggregated tissue debris was disrupted by pipetting for approximately 30 seconds and the sample was centrifuged for 5 minutes at 350 g at room temperature. Centrifugation was performed, in all examples, using the Eppendorf 5804R refrigerated centrifuge including an A-44 rotor with a radius of 15 cm (width (metric) exterior 634 mm; depth (metric) 550 mm, height (metric) exterior 342 mm). The supernatant was discarded and the pellet formed was resuspended in 2 mL of ACK buffer (Gibco ACK Lysing Buffer, #A10492-01, Fisher Scientific) to lyse the erythrocytes present in the sample. The disaggregated sample was incubated in ACK buffer for 5 minutes at room temperature and subsequently centrifuged at 350 g for 5 minutes. After centrifugation, the supernatant was discarded and 1 mL of trypsin was added at 37 °C. The pellet was resuspended by pipetting for 2 minutes. Next, 10 mL of saline (Gibco HBSS, #14025-092, Fisher Scientific) supplemented with 10 mM HEPES buffer and fetal bovine serum was added and centrifuged for 5 minutes at 350 g at room temperature. Then, the supernatant was discarded and 1 mL of the buffered saline solution (hereinafter HF) and 100 µL of warm DNase were added, carefully pipetted for 1 minute and 5 mL of cold HF was added, to stop action of the DNase. The mixture was filtered through a 40 µm filter and washed with 5 mL of cold HF. It was centrifuged for 5 minutes at 350 g, at a temperature of 4 °C and the supernatant was removed after centrifugation. Subsequently, the mixture was resuspended in 5 mL of cold HF and the mixture was distributed in cytometry tubes with a 35 µm filter. 4/5 of the sample was allocated for immunolabeling and the remaining 1/5 was allocated as an unlabelled control. It was centrifuged for 5 minutes at 1200 rpm (= 20 s^-1) at a temperature of 4 °C and the supernatant was decanted after centrifugation. Subsequently, 52 µL of blocking solution, consisting of 50 µL of HF and 2 µL of anti-CD16/CD32 antibody, were added, gently vortexed and incubated for 10 minutes at 4 °C. Next, 50 µL of immuno-labelling solution made up of the following antibodies: CD45 FITC, CD140 FITC, CD31 FITC, Ter119 FITC, CD49fAPC, CD29 APC-Cy7, CD61 BV421, Sca1 PerCP-Cy5, EpCAM PE- Cy7, e506, was added to the tube intended for staining and 50 µL of HF was added to the control tube. After incubating for 30 minutes and performing a wash, the samples were acquired with the LSR Fortessa X-20 Cell Analyzer cytometer (BD Biosciences). […]"}, "[2]": {"test_system": "K14Cre; Brca1^F/F; P53^F/F", "test": "Tumour latency and tumour incidence in the Brca1/P53 deficient mouse model", "format": "in vivo, mice", "description": "The study model used was a genetically modified mouse, generated by the group led by Jos Jinkers from the Netherland Cancer Institute and generously donated to our group. It is a conditional double knock-out (KO) for Brca1 and P53 that expresses Cre-recombinase under the promoter of the cytokeratin-14 gene (K14) as a model named: K14Cre; Brca1^F/F; P53^F/F (hereinafter Brca1 or KO). These mice develop mammary tumours (cancers) with a penetrance of 100% (although it depends on whether they develop skin cancer first and must be sacrificed) and a median age of 7 months. They mimic human tumours with BRCA1 mutations, since they are basal-type and lose P53. Since Cre-recombinase under the promoter of the K14 gene is not only expressed in mammary cells, but also in other epithelial cells, these mice develop squamous cell carcinoma-like skin tumors. The cohort of mice used in this study has an FVB/N genetic background. […]"}, "[3]": {"details": "KO-RFP+ group, vs nulliparous and lactating multiparous mice"}, "[4]": {"details": "treated vs untreated multiparous mice"}}, "data": [{"compound": "C=CCN1C[C@H](C(=O)N(CCCN(C)C)C(=O)NCC)C[C@@H]2c3cccc4[nH]cc(c34)C[C@H]21", "note": "[cabergoline, 1-[(6-allylergolin-8ß-yl)-carbonyl]-1-[3-(dimethylamino)propyl]-3-ethylurea]", "values": [{"measurement": "ductal precursor cells (CD61+) with respect to total recombinant ductal cells", "setting": "[1]; [3]", "value": "relative increase in precursors"}, {"measurement": "mature ductal cells (CD61-) with respect to total recombinant ductal cells", "setting": "[1]; [3]", "value": "relative decrease in mature ductal cells"}, {"measurement": "ductal cell subpopulations with respect to total recombinant epithelial cells", "setting": "[1]; [4]", "value": "no statistically significant differences"}, {"measurement": "proportion of luminal and basal cells within recombinant cells (RFP+)", "setting": "[1]; [4]", "value": "No significant differences"}, {"measurement": "proportion of luminal ductal cells (Sca1+) within recombinant luminal cells", "setting": "[1]; [4]", "value": "no significant differences"}, {"measurement": "tumour latency", "setting": "[2]; single intraperitoneal dose 0.25 mg/Kg at weaning after second lactation, vs pregnancy and lactation group P = 0.019, non-lactation pregnancy group P < 0.0001, nulliparous P < 0.0001", "value": "greater latency"}, {"measurement": "tumour incidence", "setting": "[2]; single intraperitoneal dose 0.25 mg/Kg at weaning, 10 mice out of 37 developed tumour, vs lactating multiparous mice P = 0.0062", "value": 27.78, "unit": "%"}]}]}
